Seven compounds from publication PMC6199744, “Development of Chemical Proteomics for the Folateome and Analysis of the Kinetoplastid Folateome” (ACS Infectious Diseases, 2018) can be followed below.

What all share (assay type): binding
Assay [1] addresses T1, HeLa cell extract proteins (Homo sapiens, UniProt O75533).
T1 construct: endogenous in cells; host or cells: HeLa cell extract

Assay [2] addresses T2, HeLa cell extract proteins (Homo sapiens, UniProt Q9UHD8).
T2 construct: endogenous in cells; host or cells: HeLa cell extract
T2 sequence (Q9UHD8 1-586): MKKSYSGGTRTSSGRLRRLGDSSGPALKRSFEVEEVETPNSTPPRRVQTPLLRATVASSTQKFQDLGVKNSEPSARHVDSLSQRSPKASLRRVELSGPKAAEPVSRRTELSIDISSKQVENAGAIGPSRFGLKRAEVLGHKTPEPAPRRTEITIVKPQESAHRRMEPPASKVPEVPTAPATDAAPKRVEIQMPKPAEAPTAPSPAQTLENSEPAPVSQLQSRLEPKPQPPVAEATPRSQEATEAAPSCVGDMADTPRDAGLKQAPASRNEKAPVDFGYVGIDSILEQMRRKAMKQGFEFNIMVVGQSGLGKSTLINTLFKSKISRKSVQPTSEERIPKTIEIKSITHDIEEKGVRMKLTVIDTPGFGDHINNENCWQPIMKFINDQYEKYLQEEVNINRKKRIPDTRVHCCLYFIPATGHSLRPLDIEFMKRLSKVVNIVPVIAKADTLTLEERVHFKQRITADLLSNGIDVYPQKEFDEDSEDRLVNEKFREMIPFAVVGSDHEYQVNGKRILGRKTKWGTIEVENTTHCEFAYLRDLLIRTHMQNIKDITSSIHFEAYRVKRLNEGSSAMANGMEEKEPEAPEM

Assay [3] deals with T3, HeLa cell extract proteins (Homo sapiens, UniProt P52565).
T3 construct: endogenous in cells; host or cells: HeLa cell extract
T3 sequence (P52565 1-204): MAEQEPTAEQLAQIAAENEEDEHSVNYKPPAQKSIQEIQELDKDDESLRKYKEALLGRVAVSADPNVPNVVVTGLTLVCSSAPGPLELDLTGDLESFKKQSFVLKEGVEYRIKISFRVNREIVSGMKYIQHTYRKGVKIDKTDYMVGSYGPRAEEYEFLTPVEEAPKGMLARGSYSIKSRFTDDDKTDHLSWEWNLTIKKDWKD

Assay [4] concerns the target T4, HeLa cell extract proteins (Homo sapiens, UniProt Q14746).
T4 construct: endogenous in cells; host or cells: HeLa cell extract
T4 sequence (Q14746 1-738): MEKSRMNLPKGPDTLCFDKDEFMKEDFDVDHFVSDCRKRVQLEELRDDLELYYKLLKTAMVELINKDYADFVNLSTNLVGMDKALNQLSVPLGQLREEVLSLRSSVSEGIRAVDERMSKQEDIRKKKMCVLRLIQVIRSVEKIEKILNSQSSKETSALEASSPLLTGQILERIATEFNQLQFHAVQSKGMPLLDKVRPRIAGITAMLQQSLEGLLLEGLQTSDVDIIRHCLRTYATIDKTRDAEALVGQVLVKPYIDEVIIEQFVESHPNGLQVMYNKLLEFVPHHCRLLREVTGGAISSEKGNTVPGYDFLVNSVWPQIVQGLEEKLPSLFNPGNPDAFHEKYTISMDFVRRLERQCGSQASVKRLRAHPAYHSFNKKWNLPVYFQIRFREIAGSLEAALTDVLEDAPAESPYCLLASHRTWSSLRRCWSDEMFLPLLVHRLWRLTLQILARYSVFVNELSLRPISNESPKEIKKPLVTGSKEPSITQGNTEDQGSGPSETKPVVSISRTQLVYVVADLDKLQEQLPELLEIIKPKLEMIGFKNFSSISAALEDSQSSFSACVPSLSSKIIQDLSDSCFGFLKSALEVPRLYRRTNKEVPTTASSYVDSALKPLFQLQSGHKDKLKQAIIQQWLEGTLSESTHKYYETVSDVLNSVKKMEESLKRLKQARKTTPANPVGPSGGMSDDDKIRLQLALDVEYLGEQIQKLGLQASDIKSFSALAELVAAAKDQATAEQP
To be noted: captured protein COG2; HeLa.

For assay [5], the target named is T5, HeLa cell extract proteins (Homo sapiens, UniProt P82933).
T5 construct: endogenous in cells; host or cells: HeLa cell extract
Particulars: protein MRPS9; HeLa.

Assay [6] deals with T6, HeLa cell extract proteins (Homo sapiens, UniProt Q9BUF5).
T6 construct: endogenous in cells; host or cells: HeLa cell extract
T6 sequence (Q9BUF5 whole entry): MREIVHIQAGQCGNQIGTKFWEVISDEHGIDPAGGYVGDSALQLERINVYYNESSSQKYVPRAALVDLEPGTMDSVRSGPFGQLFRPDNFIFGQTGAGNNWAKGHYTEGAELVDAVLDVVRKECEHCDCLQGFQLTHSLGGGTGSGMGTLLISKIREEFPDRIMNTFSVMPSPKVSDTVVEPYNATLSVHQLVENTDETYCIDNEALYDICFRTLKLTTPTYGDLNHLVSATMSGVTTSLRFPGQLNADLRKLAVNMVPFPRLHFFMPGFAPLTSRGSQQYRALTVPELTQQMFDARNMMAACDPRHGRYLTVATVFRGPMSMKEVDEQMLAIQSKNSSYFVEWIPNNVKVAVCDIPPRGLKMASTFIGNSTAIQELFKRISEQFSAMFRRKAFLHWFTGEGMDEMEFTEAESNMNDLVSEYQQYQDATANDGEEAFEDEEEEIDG
Particulars: HeLa; protein TUBB6.

The target in assay [7] is T7, HeLa cell extract proteins (Homo sapiens, UniProt P48729).
T7 construct: endogenous in cells; host or cells: HeLa cell extract
T7 sequence (P48729 whole entry): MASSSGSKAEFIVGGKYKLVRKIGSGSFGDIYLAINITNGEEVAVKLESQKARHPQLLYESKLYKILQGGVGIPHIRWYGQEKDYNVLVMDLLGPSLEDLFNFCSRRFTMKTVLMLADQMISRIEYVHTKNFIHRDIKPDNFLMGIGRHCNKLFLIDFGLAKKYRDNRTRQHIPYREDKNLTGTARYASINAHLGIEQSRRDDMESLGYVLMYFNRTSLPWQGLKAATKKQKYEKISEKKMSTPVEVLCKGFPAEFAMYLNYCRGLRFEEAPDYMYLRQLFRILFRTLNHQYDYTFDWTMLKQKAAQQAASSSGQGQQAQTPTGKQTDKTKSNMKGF
Particulars: protein CSNK1A1; HeLa.

Assay [8] has as its target T8, HeLa cell extract proteins (Homo sapiens, UniProt A0FGR8).
T8 construct: endogenous in cells; host or cells: HeLa cell extract
T8 sequence (A0FGR8 1-921): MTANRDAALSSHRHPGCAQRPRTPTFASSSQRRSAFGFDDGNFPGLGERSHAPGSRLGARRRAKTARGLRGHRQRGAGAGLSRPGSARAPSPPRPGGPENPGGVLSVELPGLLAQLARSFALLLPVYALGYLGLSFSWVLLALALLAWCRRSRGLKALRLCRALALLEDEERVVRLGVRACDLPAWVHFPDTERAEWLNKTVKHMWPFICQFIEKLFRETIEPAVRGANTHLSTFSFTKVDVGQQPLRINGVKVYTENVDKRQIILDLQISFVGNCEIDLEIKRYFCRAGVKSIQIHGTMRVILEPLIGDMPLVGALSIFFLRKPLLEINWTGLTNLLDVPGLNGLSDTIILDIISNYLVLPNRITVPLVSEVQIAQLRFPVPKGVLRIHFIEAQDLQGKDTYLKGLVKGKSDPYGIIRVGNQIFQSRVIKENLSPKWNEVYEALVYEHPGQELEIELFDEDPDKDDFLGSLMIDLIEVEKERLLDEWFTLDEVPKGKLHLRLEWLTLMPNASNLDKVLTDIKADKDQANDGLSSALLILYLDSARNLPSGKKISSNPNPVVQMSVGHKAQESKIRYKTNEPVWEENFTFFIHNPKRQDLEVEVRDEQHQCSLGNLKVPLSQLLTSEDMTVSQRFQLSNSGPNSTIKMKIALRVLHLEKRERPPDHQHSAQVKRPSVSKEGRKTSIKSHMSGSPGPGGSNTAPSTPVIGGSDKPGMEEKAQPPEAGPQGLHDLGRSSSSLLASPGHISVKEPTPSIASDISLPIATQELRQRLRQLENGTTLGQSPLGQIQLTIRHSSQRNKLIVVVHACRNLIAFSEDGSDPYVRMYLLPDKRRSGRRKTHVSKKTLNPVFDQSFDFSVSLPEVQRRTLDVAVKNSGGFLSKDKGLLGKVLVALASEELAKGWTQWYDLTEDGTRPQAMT
To be noted: HeLa; protein FAM62B.

Like-named read-outs stand apart in the source and are kept apart here.

T1 sequence (O75533 whole entry): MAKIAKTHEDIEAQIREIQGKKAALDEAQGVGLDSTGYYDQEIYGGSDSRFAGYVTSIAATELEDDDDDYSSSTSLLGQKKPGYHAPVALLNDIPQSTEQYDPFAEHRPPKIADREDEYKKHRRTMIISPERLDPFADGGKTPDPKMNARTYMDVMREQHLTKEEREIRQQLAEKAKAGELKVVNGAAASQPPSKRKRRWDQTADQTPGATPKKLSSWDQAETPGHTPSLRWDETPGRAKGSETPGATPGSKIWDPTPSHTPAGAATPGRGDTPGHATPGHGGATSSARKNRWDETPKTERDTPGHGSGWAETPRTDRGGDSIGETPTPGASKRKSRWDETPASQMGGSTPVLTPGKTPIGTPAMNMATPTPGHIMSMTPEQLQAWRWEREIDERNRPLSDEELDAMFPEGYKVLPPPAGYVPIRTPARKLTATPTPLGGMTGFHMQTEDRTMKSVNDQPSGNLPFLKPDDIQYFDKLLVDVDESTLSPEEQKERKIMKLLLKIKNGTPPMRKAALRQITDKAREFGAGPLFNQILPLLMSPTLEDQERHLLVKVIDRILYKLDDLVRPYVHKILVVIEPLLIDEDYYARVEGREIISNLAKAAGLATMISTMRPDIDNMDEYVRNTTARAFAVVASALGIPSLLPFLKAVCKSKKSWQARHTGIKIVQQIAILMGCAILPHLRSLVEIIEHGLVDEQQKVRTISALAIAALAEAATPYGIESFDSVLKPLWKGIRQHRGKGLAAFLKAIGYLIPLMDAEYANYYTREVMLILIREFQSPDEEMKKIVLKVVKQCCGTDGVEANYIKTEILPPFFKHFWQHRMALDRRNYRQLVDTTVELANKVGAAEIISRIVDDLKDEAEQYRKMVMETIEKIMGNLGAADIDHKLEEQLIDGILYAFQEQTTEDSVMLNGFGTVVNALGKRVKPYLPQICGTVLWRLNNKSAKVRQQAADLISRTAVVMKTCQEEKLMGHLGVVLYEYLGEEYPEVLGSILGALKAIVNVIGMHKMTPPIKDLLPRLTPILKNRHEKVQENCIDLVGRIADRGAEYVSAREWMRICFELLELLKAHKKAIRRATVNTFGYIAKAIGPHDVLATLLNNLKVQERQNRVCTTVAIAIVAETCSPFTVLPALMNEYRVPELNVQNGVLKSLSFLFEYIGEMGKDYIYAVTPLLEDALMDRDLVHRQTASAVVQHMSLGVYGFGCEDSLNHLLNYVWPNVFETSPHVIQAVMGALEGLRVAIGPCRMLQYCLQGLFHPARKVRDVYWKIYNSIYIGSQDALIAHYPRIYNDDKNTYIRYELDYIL

As for `Nc1nc2c(c(=O)[nH]1)N(C=O)C(CNc1ccc(C(=O)N[C@@H](CCC(=O)O)C(=O)O)cc1)CN2` (stereo partly drawn) [LEU, leucovorin], the “fold changes relative to vehicle control” value came out at 1.02 in assay [1] (HeLa, protein SF3B1); 0.93 in assay [2] (protein SEPT9, HeLa); 1.03 in assay [3] (HeLa, protein ARHGDIA).
Take `Nc1nc2[nH]cc(CCc3ccc(C(=O)N[C@@H](CCC(=O)O)C(=O)O)cc3)c2c(=O)[nH]1` [PTX, pemetrexed]: the figures for the “fold changes relative to vehicle control” value in assay [1], in assay [2] and in assay [3] were 1.1, 0.96 and 1.08, respectively.
Consider `CCCCCCOc1ccc(Cc2cnc(N)nc2N)cc1` [compound 1], for which the “fold changes relative to vehicle control” value amounted to 0.88 in assay [4]; 1.24 in assay [5]; 0.7 in assay [6]; 0.93 in assay [7]; 0.82 in assay [8].
On to `CCCCCCOc1cccc(Cc2cnc(N)nc2N)c1` [compound 2], for which the “fold changes relative to vehicle control” value came out at 1 in assay [4]; 1.3 in assay [5]; 0.91 in assay [6]; 1.17 in assay [7]; 1.29 in assay [8].
In the same order, the values of `Nc1nc2cccc(-c3ccccc3)c2n1Cc1ccc(Cl)c(Cl)c1` [compound 3] are 0.82, 0.92, 1.19, 1.06 and 0.96.
As for `NCCOCCOCC(=O)Nc1nc2ncc(CNc3ccc(C(=O)NC(CCC(=O)O)C(=O)O)cc3)nc2c(=O)[nH]1` (stereo not drawn) [compound 6], the “fold changes relative to vehicle control” value in assay [1] (HeLa, protein SF3B1) was 1.16; in assay [2] (protein SEPT9, HeLa), 1; in assay [3] (HeLa, protein ARHGDIA), 1.18.
Consider `NCCCNc1ccc(C(=O)NC(CCC(=O)O)C(=O)O)cc1` (stereo not drawn) [compound 7], for which the “fold changes relative to vehicle control” value was 1.07 in assay [1] (HeLa, protein SF3B1); 0.92 in assay [2] (protein SEPT9, HeLa); 1.08 in assay [3] (HeLa, protein ARHGDIA).
